Results as given in US20090105206A1, “Copper Melphalan And Copper Tegafur As Anti-Tumor Agents” (priority 2004, published 2009).
Several values for one entry are separate records, joined by “and”; a condition that tells them apart may be missing. Equal values may be shown once.

What was measured:
OVCAR-3/P19 tumor cells = test: Example 6: NOD/SCID mice s.c. injected with OVCAR-3 tumor cells; assay type: in vivo, female NOD/SCID mice
Protocol: 2×10^6 OVCAR-3/P19 tumor cells were s.c. injected into female NOD/SCID mice. The mice were treated as follows.
The treatment began with a mean tumor volume of 80 mm^3.
To level possible differences in tumor volume at the start of treatment in the individual groups and to make evident differences owing to the low absolute volumes in the treatment groups, the relative tumor volumes (RTV) have been analyzed. The relative tumor volume results from the ratio of the volume on day x and the tumor volume at the start of treatment in the same test animal. […] The tumor growth was stopped in group 2 after just 7 days. After 3 days of constant tumor volume a tumor regression began from day 30 (10th day of treatment) in the test animals treated with copper-melphalan.

[1] = system: murine renal cell carcinoma (RENCA) tumor cells applied orthotopically; test: Example 5: orthotopic RENCA model, late treatment from Day 10; assay type: in vivo, Balb/c mouse; details: for Kidney weight / Lung weight / Number of intestinal lymph node metastases / Number of lung metastases (late treatment day 10-14) / Kidney volume: day 18, individual animals; for Vessel density, later start of treatment day 10-14: individual sections
Protocol: (§1) The tests were carried out on a murine renal cell carcinoma model (RENCA) of the Balb/c mouse. The tumor cells were applied orthotopically into the left-hand renal capsule of syngenic mice. The effect of the treatment carried out on a primary tumor (in the implanted kidney), metastases (predominantly in the lungs, spleen and intestinal lymph nodes) and vessel density were investigated.
(§2) After anesthesia by means of isoflurane narcosis (O2— flow approx. 2.0 l with 0.5-1.5% isoflurane) a small incision was made in the mouse's left flank. The kidney was prepared and presented free from the peritoneum. A 27 G needle was introduced via the lower kidney pole through to below the renal capsule with visual inspection, and […] in 70 μl aliquots respectively applied once. The occurrence of a visible liquid-filled blister between kidney parenchyma and renal capsule and the discoloration of the kidneys were regarded as criteria for successful application. The kidney was subsequently reset and the incision into the abdominal wall closed by means of fascia stitches and cutaneous stitches with absorbable stitching material. Five test groups with ten animals respectively were formed. Group 1 negative control, group 2 positive control melphalan (Glaxo), group 3 and 4 MOC melphalan 2.5 mg/kg and 5 mg/kg. In the case of group 5 an antiangiogenically effective substance was applied as the positive control. The start of treatment was fixed for day 1 post op. for Cu(melphalan)2. Treatment was carried out daily up to day seven (see treatment model). The test was ended after 19 days since, owing to their size, the control tumors required termination for ethical reasons.
(§3) After selecting the animals the tissues to be examined were quickly transferred into liquid nitrogen and then frozen at −80° C. 5-10 μm thick sections were prepared from the tissue parts. The preparations were immunohistochemically dyed with an anti-CD31 antibody (Pecam-1) and the number of vessels in the control and treatment groups counted. Two sections of each tumor with three areas respectively were used for counting the vessels.
The study report matches that of Example 4, differing only in terms of treatment intervals and dose groups. Four test groups with ten animals respectively were formed. Group 1 negative control, group 2 positive control melphalan (Glaxo), groups 3 and 4 Cu(melphalan)2 5 mg/kg and 7.5 mg/kg. The start of treatment was fixed for day 10 post op. for all groups. The intention was for daily treatment from day 10 until day 17 (see treatment model). Owing to toxicities the treatment period was reduced to day 10-14. After 18 days the test was ended since, owing to their size, the control tumors required termination for ethical reasons.
• The implantation day was counted as day 0. • Duration of the test 18 days. • Number of animals at beginning of test 40; no animals died during the op.

[2] = system: murine renal cell carcinoma (RENCA) tumor cells applied orthotopically; test: Example 4: orthotopic renal cell carcinoma model (RENCA), treatment Day 1-7; primary tumor, metastases, vessel density (anti-CD31); assay type: in vivo, Balb/c mouse; details: for Kidney weight / Lung weight / Number of intestinal lymph node metastases / Number of lung metastases: day 19; for Kidney weight / Lung weight / Number of intestinal lymph node metastases / Number of lung metastases / Kidney volume: individual animals; for Kidney volume: test ended day 19
Protocol: as §1, §2
• The implantation day was counted as day 0. • Duration of the test 19 days. • Number of animals at beginning of test 50, no animals died during the op.
as §3

[3] = Gr. 3, 7.5 mg/kg copper-melphalan vs control (PBS)
[4] = Gr. 3, 7.5 mg/kg copper-melphalan vs control (PBS), baseline
[5] = Cu(melphalan)2 8.8 μmol/kg (5 mg/kg) i.p. Day 10-14
[6] = Cu(melphalan)2 13.2 μmol/kg (7.5 mg/kg/d) i.p. Day 10-14
[7] = Cu(melphalan)2 4.4 μmol/kg (2.5 mg/kg) i.p. Day 1-7
[8] = Cu(melphalan)2 8.8 μmol/kg (5 mg/kg/d) i.p. Day 1-7
[9] = dose of 2.5 mg/kg and 5 mg/kg, Day 1-7 i.p.

## N[C@@H](Cc1ccc(N(CCCl)CCCl)cc1)C(=O)[O-].N[C@@H](Cc1ccc(N(CCCl)CCCl)cc1)C(=O)[O-].O.O.[Cu+2] [Cu(melphalan)2]
OVCAR-3/P19 tumor cells; [3]
  Vol Day 30, median in % of group 1: 50.9%
  Vol Day 37, mean in % of group 1: 9.3%
  Vol Day 37, median in % of group 1: 7.0%
OVCAR-3/P19 tumor cells; [4]
  RTV Day 20, mean in % of group 1: 100.0%
  RTV Day 20, median in % of group 1: 100.0%
  Vol Day 20, mean in % of group 1: 81.3%
  Vol Day 20, median in % of group 1: 113.3%
OVCAR-3/P19 tumor cells; Mann-Whitney rank sum test, mean tumor volume p=0.021, mean RTV p=0.01
  statistical comparison of effectiveness with melphalan at end of treatment (day 37): statistically significant higher degree of effectiveness
[1]; [5]
  Kidney weight: 1.70 gr and 1.78 gr (2×) and 1.88 gr and 1.23 gr and 0.75 gr and 1.56 gr
  Lung weight: 0.11 gr (2×) and 0.14 gr and 0.15 gr and 0.13 gr (2×) and 0.21 gr
  Number of intestinal lymph node metastases: 20 and 40 and 36 and 12 and 64 and 51 and 75
  Number of lung metastases (late treatment day 10-14): 28 and 0 (2×) and 21 and 345 and 431 and 750
  Vessel density, later start of treatment day 10-14: 44 (2×) and 38 and 34 and 56 (2×) and 46 and 26 and 51 and 72 and 25 and 35 and 40 and 31
[1]; Cu(melphalan)2 8.8 μmol/kg (5 mg/kg) i.p. from Day 10 (planned 10-17, reduced to 10-14)
  Kidney volume: 3.12 cm^3 and 2.60 cm^3 and 2.63 cm^3 and 2.08 cm^3 and 2.90 cm^3 and 1.96 cm^3 and 2.76 cm^3
[1]; [6]
  Kidney weight: 1.37 gr and 2.39 gr and 0.26 gr and 1.90 gr and 1.05 gr and 0.27 gr and 1.92 gr and 0.46 gr and 2.50 gr and 0.74 gr
  Lung weight: 0.11 gr and 0.13 gr (2×) and 0.10 gr
  Number of intestinal lymph node metastases: 0
  Number of lung metastases (late treatment day 10-14): 0 (4×) and 3 and 77 and 750 and 300 and 4 and 10
  Vessel density, later start of treatment day 10-14: 35 (2×) and 52 and 58 and 43 and 48 and 65 and 53
[1]; Cu(melphalan)2 13.2 μmol/kg (7.5 mg/kg/d) i.p. from Day 10 (planned 10-17, reduced to 10-14)
  Kidney volume: 1.96 cm^3 and 3.08 cm^3 and 0.60 cm^3 and 2.60 cm^3 and 1.98 cm^3 and 0.91 cm^3 and 3.06 cm^3 and 1.22 cm^3 and 3.33 cm^3 and 1.68 cm^3
[1]; dose of 8.8 μmol/kg, Day 10-14
  antiangiogenic effect (vessel density): significantly antiangiogenic
[1]; dose of 13.2 μmol/kg, Day 10-14
  anti-metastatic effect, lung metastases and lymph node metastases: significant anti-metastatic effect
[1]; dose of both 8.8 μmol/kg and 13.2 μmol/kg, Day 10-14
  anti-tumoral effect against the primary tumor: significant anti-tumoral effect
[2]; [7]
  Kidney weight: 0.78 gr and 2.00 gr and 0.81 gr and 0.38 gr and 1.58 gr and 1.02 gr and 1.28 gr and 1.06 gr and 1.15 gr and 0.29 gr
  Lung weight: 0.20 gr and 0.31 gr and 0.49 gr and 1.07 gr and 0.11 gr (2×) and 0.14 gr and 0.24 gr and 0.13 gr (2×)
  Number of intestinal lymph node metastases: 1 and 2 and 3 and 4 and 0 (5×) and 6
  Number of lung metastases: 378 and >750 (4×) and 9 and 49 and 29 and 3 and 570
  Kidney volume: 1.54 cm^3 and 2.2 cm^3 and 1.2 cm^3 and 0.96 cm^3 and 2.13 cm^3 and 1.53 cm^3 and 1.71 cm^3 (2×) and 1.80 cm^3 and 0.60 cm^3
[2]; [8]
  Kidney weight: 0.79 gr (2×) and 0.19 gr and 1.06 gr and 0.59 gr and 0.85 gr and 0.74 gr and 0.18 gr and 0.29 gr and 0.36 gr
  Lung weight: 0.14 gr (2×) and 0.16 gr and 0.15 gr and 0.11 gr and 0.21 gr and 0.31 gr and 0.22 gr and 0.18 gr and 0.13 gr
  Number of intestinal lymph node metastases: 0 (8×) and 4 and 2
  Number of lung metastases: 11 and 4 (2×) and 162 and 0 and 680 and 16 and 610 and 92 and 7
  Kidney volume: 1.24 cm^3 and 0.44 cm^3 and 1.5 cm^3 and 1.2 cm^3 and 1.33 cm^3 and 1.30 cm^3 and 1.12 cm^3 and 0.6 cm^3 and 0.64 cm^3 and 1.26 cm^3
[2]; approximately quarter-equimolar dose (2.5 mg/kg, 4.4 μmol/kg vs 16.4 μmol/kg melphalan)
  effectiveness compared with melphalan: Effectiveness comparable with melphalan
[2]; approximately semi-equimolar dose (5 mg/kg, 8.8 μmol/kg vs 16.4 μmol/kg melphalan)
  effectiveness compared with melphalan alone: better effectiveness than melphalan alone
[2]; [9]
  anti-metastatic effect, intestinal lymph node metastases: significant anti-metastatic effect
  anti-tumor effect (primary tumor): significant anti-tumor effect
[2]; dose of 5 mg/kg, Day 1-7 i.p.
  anti-metastatic effect, lung metastases: significant anti-metastatic effect
